Literature values, collected in article PMC9010276 (Clinical and Translational Science, 2021).
Read-outs that look alike come from different tables or passages of the source.

Assays:
[1] = studies with registered drugs

Compound | Skin rash after administration (after multiple dosing at higher dose levels) | Analgesic effects on experimental pain tests [1] | Skin rash after administration (nonselective Nav inhibitors)
Nc1[nH]ncc1-c1cc(Cl)ccc1Oc1cc(F)c(S(=O)(=O)Nc2cscn2)cc1Cl [PF‐05089771] | mild skin rash |  | 
CCN(CC)CC(=O)Nc1c(C)cccc1C [lidocaine] |  | limited and variable analgesic effects | 
O=C1NC(=O)C(c2ccccc2)(c2ccccc2)N1 [phenytoin] |  |  | mild skin rash
Cc1cccc(C)c1OCC(C)N (stereo not drawn) [mexiletine] |  | limited and variable analgesic effects | mild skin rash
COC[C@@H](NC(C)=O)C(=O)NCc1ccccc1 [lacosamide] |  | limited and variable analgesic effects | 
